# pIC50: −log10 of the molar value. Calls of active or inactive are those of the source. The calls are words filed in the database; no cut-off is given here.
# Legend:
# SW-620 = experiment: Cytotoxicity against human SW620 cells after 48 hrs by MTT assay; assay type: functional, cell-based
# Staphylococcus aureus = experiment: Antibacterial activity against Staphylococcus aureus ATCC 25923 assessed as inhibition of bacterial growth incubated for 24 hrs; assay type: functional, organism-based; conditions: ATCC 25923, 24 h
# Escherichia coli = experiment: Antibacterial activity against Escherichia coli ATCC 11775 assessed as inhibition of bacterial growth incubated for 24 hrs; assay type: functional, organism-based; conditions: ATCC 11775, 24 h
# [1] = target: ATP-dependent translocase ABCB1 (Homo sapiens, UniProt P08183); experiment: Reversal of P-gp mediated doxorubicin resistance in human SW620 Ad300 cells overexpressing P-gp at 30 uM after 48 hrs by MTT assay; assay type: cell-based; conditions: sw-620, 48 h
# Chain of ATP-dependent translocase ABCB1 (P08183 whole entry): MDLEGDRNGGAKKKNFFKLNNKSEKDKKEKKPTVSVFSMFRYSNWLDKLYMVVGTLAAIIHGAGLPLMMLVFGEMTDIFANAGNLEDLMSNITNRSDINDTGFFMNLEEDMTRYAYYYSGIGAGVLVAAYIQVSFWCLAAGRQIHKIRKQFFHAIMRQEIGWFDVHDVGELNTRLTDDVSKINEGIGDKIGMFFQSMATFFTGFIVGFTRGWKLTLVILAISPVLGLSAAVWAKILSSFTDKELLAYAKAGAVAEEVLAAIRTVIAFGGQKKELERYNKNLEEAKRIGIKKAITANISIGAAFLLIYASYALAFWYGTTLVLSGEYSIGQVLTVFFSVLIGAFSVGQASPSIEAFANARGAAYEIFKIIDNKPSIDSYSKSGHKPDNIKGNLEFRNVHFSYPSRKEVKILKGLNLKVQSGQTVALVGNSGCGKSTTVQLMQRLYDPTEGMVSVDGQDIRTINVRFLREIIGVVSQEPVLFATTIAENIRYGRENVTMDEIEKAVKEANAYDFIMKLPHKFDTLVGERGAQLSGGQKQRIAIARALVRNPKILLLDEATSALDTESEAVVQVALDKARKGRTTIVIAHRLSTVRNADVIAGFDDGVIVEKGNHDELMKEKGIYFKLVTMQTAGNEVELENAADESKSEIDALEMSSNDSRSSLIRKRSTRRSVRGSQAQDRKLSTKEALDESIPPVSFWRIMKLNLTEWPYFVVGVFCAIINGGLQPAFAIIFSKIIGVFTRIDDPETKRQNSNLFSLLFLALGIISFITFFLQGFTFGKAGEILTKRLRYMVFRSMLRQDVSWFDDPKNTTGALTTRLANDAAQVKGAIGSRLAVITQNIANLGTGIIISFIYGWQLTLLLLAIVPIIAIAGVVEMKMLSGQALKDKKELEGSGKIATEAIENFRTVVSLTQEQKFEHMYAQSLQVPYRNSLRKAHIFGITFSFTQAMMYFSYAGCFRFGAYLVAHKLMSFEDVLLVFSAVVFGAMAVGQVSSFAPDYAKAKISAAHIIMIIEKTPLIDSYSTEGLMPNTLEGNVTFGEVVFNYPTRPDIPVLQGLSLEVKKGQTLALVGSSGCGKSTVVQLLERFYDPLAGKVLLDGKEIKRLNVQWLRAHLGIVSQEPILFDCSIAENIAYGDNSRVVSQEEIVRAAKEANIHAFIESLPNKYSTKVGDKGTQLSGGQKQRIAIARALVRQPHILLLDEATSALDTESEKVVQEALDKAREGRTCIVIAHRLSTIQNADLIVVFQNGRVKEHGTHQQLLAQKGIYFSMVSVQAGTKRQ
# Candida albicans = experiment: Antifungal activity against Candida albicans ATCC 10231 assessed as inhibition of fungal growth incubated for 24 hrs; assay type: functional, organism-based; conditions: ATCC 10231, 24 h
SMILES,Activity (SW-620),pIC50 (Staphylococcus aureus),pIC50 (Escherichia coli),Activity [1],pIC50 (Candida albicans)
COc1cc(C)cc2c1C(=O)c1c(cc(O)c(OC)c1O)[C@H]2[C@@H]1c2cc(C)cc(OC)c2C(=O)c2c(O)cc(O)c(Cl)c21,inactive,< 4.52,< 4.52,Not Active,< 4.52
COc1cc(C)cc2c1C(=O)c1c(O)cc(O)cc1[C@@H]2[C@@H]1c2cc(C)cc(OC)c2C(=O)c2c(O)c(OC)c(O)c(Cl)c21,inactive,< 4.52,< 4.52,Not Active,< 4.52
COc1cc(CO)cc2c1C(=O)c1c(O)cc(O)cc1C2=O [CARVIOLIN],inactive,< 4.52,< 4.52,Not Active,< 4.52
COc1cc(C)cc2c1C(=O)c1c(O)cc(O)c(Cl)c1C2O (stereo not given),inactive,< 4.52,< 4.52,Not Active,< 4.52
COc1cc(CO)cc2c1C(=O)c1c(cc(O)c(OC)c1O)C2=O,inactive,< 4.52,< 4.52,Not Active,< 4.52
COc1cc(C)cc2c1C(=O)c1c(O)cc(O)c(Cl)c1[C@@H]2[C@@H]1c2cc(C)cc(OC)c2C(=O)c2c(O)c(OC)c(O)c(Cl)c21,inactive,< 4.52,< 4.52,Not Active,< 4.52
COc1cc(C)cc2c1C(=O)c1c(O)c(OC)c(O)c(Cl)c1[C@@H]2[C@H]1c2cc(C)cc(OC)c2C(=O)c2c(O)c(OC)c(O)c(Cl)c21,inactive,< 4.52,< 4.52,Not Active,< 4.52
COc1cc(C)cc2c1C(=O)c1c(cc(O)c(OC)c1O)[C@@H]2[C@@H]1c2cc(C)cc(OC)c2C(=O)c2c(O)cc(O)c(Cl)c21,inactive,< 4.52,< 4.52,Not Active,< 4.52
COc1cc(C)cc2c1C(=O)c1c(O)cc(O)c(Cl)c1[C@@H]2[C@H]1c2cc(C)cc(OC)c2C(=O)c2c(O)cc(O)c(Cl)c21,inactive,< 4.52,< 4.52,Not Active,< 4.52
COc1cc(C)cc2c1C(=O)c1c(cc(O)c(OC)c1O)[C@@H]2[C@@H]1c2cc(C)cc(OC)c2C(=O)c2c(O)c(OC)c(O)c(Cl)c21,inactive,< 4.52,< 4.52,Not Active,< 4.52
COc1cc(C)cc2c1C(=O)c1c(O)cc(O)c(Cl)c1[C@@H]2[C@@H]1c2cc(C)cc(OC)c2C(=O)c2c(O)cc(O)c(Cl)c21,inactive,< 4.52,< 4.52,Not Active,< 4.52
COc1cc(C)cc2c1C(=O)c1c(O)c(OC)c(O)c(Cl)c1[C@@H]2[C@@H]1c2cc(C)cc(OC)c2C(=O)c2c(O)c(OC)c(O)c(Cl)c21,inactive,< 4.52,< 4.52,Not Active,< 4.52
COc1cc(C)cc2c1C(=O)c1c(O)cc(O)cc1C2=O [1-O-METHYLEMODIN],inactive,< 4.52,< 4.52,Not Active,< 4.52
COc1cc(C)cc2c1C(=O)c1c(cc(O)c(OC)c1O)C2=O,inactive,< 4.52,< 4.52,Not Active,< 4.52
COc1cc(C)cc2c1C(=O)c1c(O)cc(O)cc1[C@@H]2[C@@H]1c2cc(C)cc(OC)c2C(=O)c2c(O)cc(O)c(Cl)c21,inactive,< 4.52,< 4.52,Not Active,< 4.52
COc1cc(C)cc2c1C(=O)c1c(O)c(OC)c(O)c(Cl)c1[C@@H]2[C@H]1c2cc(C)cc(OC)c2C(=O)c2c(O)cc(O)c(Cl)c21,inactive,< 4.52,< 4.52,Not Active,< 4.52
